The values below come from patent publication US20210163929A1, “METHODS AND COMPOSITIONS FOR THE TREATMENT OF HEPATIC AND METABOLIC DISEASES” (The Regents of the University of California, priority 2018, published 2021).

“Also recorded” adds a separate entry of the source.

Data set [1] deals with miR-22 in HCT116 cells. Nature of the data set: miR-22 induction in HCT116 cells treated with bile acids or HDAC inhibitors. The data set is classed as cell-based, human. Here is the method: A time course study in which HCT116 cells were treated by 150 μM CDCA for indicated times. […] Data are presented as mean+/−S.D. * denotes p<0.05.
Data are shown as mean+/−S.D. * p<0.05; ** p<0.01; ***p<0.001.
OCA is a semi-synthetic bile acid, which as the structure of 6α-ethyl-chenodeoxycholic acid.

Data set [2] concerns FGF21 signaling and miR-22 in Huh7 cells. The data set is described as follows: mRNA and protein levels in Huh7 cells treated with OCA/INT-747, CDCA, butyrate or RA plus butyrate. The data set is classed as cell-based, human. Conditions: for mRNA and protein levels of FGF21, FGFR1 and PGC1α: OCA 5 or 20 μM. On the procedure:
(§1) Cell culture: Huh7 cells were obtained from Japanese Collection of Research Bioresources and maintained in DMEM with 10% FBS. Cells were treated with DMSO, OCA (5 or 20 μM; Apexbio Technology LLC, Houston, Tex., USA) in serum-free media for indicated time. Cells were plated (1×10^6 cells per 60-mm dish, 2×10^5 cells per 6-well plates, and 1×10^5 cells per 24-well plates) overnight prior to treatment or infection.
Gene expression quantification: Total RNA was extracted using TRIzol Reagent (Thermo Fisher Scientific, Waltham, Mass., USA), and cDNA was generated using High Capacity RNA-to-cDNA Kit (Applied Biosysterms, Carlsbad, Calif., USA). qRT-PCR was performed on ABI 7900HT Fast Real-time PCR system using Power SYBR® Green PCR Master Mix (Applied Biosysterms).
(§2) Western blot: Western blot was performed as described previously (26). Antibodies used were anti-FGFR1, FGF21, FASN, phosphor (P)-AMPK, total (T)-AMPK, phosphor (P)-ERK1/2, and total (T)-ERK1/2 (Cell Signaling Technology, Beverly, Mass., USA), β-ACTIN (MilliporeSigma), CD36 (Bioss Antibodies Inc., Woburn, Mass., USA), CYCLIN A2, PGC1α (Novus Biologicals, LLC, Littleton, Colo., USA), and PPARα (Santa Cruz Biotechnology, Santa Cruz, Calif., USA).

Data set [3] has as its system FGF21 signaling in Huh7 cells. Nature of the data set: Huh7 cells infected/transfected with miR-22 or miR-22 inhibitors, mRNA and Western blot. Type of data set: cell-based, human. Conditions: adenovirus control or miR-22 inhibitors followed by DMSO or OCA 5 μM for 6 h.
Source text: However, miR-22 was induced in the livers and adipose tissues of WD-fed mice (FIG. 15B). Similarly, using human liver biopsy specimens, miR-22 levels were positively associated with hepatic fat content and inversely correlated with the mRNA levels of PGC-1α, a key regulator of mitochondrial biogenesis (FIG. 15C). […] To study the downstream effects of miR-22, miR-22 mimics (ID: MIMAT0000077, […] (SEQ ID NO:2), Applied Biological Materials Inc.) were used to transfect human liver Huh7 cells.
as §1
Constructs and luciferase reporter assay: The 3′ untranslated region (3′-UTR) of the FGFR1 gene containing the putative binding site for miR-22 and the entire 3′-UTR of the FGF21 gene (105 bp) was cloned into the psiCHECK2 vector (Promega, Madison, Wis., USA) using NotI and XhoI. For cell infection, adenovirus (negative control), adenoviral-delivered miR-22 (miR-22), or adenoviral-miR-22 inhibitors (SEQ ID NO:1; Applied Biological Materials Inc., Richmond, BC) were used. Forty-eight h post infection, cells were transfected with psiCHECK2-FGR1-3′UTR or psiCHECK2-FGF21 3′UTR using Lipofectamine 2000 (Thermo Fisher Scientific). Twenty-four h later, cells were harvested for firefly and Renilla luciferase assay using the Dual-luciferase Reporter system (Promega). Renilla luciferase activity was standardized to firefly luciferase activity.
as §2

In data set [4] the test system is Western diet-induced obese C57BL/6 male mice. Nature of the data set: WD-induced obese mice treated with OCA, miR-22 inhibitors or both for 3 weeks. Type of data set: in vivo, mouse. Here is the method: Mice: C57BL/6 wild-type (WT) male mice (Charles River Laboratories, Inc., Wilmington, Mass., USA) were housed in regular filter-top cages at 22° C. with a 12 h/12 h light/dark cycle. For Western diet (WD)-induced obesity models, mice were fed a WD (21% fat, 34% sucrose, and 0.2% cholesterol, w/w) or control diet (CD 5% fat, 12% sucrose, and 0.01% cholesterol, w/w; Harlan Teklad, Indianapolis, Ind., USA) after weaning (3 weeks). When those mice were 7-months old, WD-fed mice were randomly assigned to […] and received vehicle (0.5% carboxyl methyl cellulose sodium), OCA ([…], daily, oral gavage), miR-22 inhibitors (1×10^9 PFU, tail vein injection, once a week), and the combination of OCA and miR-22 inhibitors for three weeks. For alcohol-induced steatosis models, 3-month-old C57BL/6 male mice were initially fed a control Lieber-DeCarli diet (F1259SP, Bio-Serv, Flemington, N.J., USA) ad libitum for 5 days followed by 5% alcohol supplementation for 21 days (F1258SP, Bio-Serv). Then, those alcohol-fed mice received adenovirus (negative control) or miR-22 inhibitors (1×10^9 PFU, tail vein injection, 3 times in 10 days). All the mice were euthanized 1 day after the last viral injection. Animal experiments were conducted in accordance with the National Institutes of Health Guide for the Care and Use of Laboratory Animals under protocols approved by the Institutional Animal Care and Use Committee of the University of California, Davis.
Biochemical analysis: Hepatic triglyceride and cholesterol (BioAssay Systems, Hayward, Calif., USA) levels and serum lipopolysaccharide (LPS) (Thermo Fisher Scientific), alanine transaminase (ALT) (Pointe Scientific), and alkaline phosphatase (ALP) (Pointe Scientific) levels were quantified according to the manufacturer's instructions.
Insulin tolerance test: After 6 h food deprivation, tail vein blood was used to establish fasting blood glucose levels. For insulin tolerance testing, insulin (1 U/kg body weight, i.p.; MilliporeSigma, Burlington, Mass., USA) was given followed by measuring blood glucose level at various times with the OneTouch Ultra 2 (Johnson & Johnson Co., New Brunswick, N.J., USA). The area under the curve (AUC) of the blood glucose levels over time was calculated.
Serum FGF21 and glucagon-like peptide (GLP-1) secretion assay: Serum FGF21 levels were quantified by ELISA (Boster Biological Technology, Pleasanton, Calif., USA). For GLP-1 secretion assays, mice were unfed for 12 h followed by orally administration of dipeptidyl peptidase-4 inhibitor, sitagliptin ([…]; TSZ Chem, Framingham, Mass., USA) and a liquid diet (Ensure Plus, […]; Ross Laboratories, Columbus, Ohio, USA), which contains 15% protein, 57% carbohydrate, and 28% fat to stimulate GLP-1 secretion, as previously described (25). Blood samples were collected immediately (time 0) as well as 15, and 30 min after Ensure Plus feeding. Serum GLP-1 was quantified by a ELISA kit (RayBiotech Life, Norcross, Ga., USA).

The test system of data set [5] is miR-22 in HCT116 cells. Nature of the data set: miR-22 induction in HCT116 cells treated with bile acids or HDAC inhibitors. Type of data set: cell-based, human. The source holds these as a separate data set.
Data set [6] relates to patients with NASH and T2DM. Conditions: cited from earlier work.
Data set [7] relates to hepatic inflammation and fibrosis. Conditions: 30 mg/kg/day, gavage, every 2 days for 4 weeks; cited from earlier work.
The mark [8] stands for this setting: 1-day treatment, SAHA (5, butyrate 5 mM, propionate 10 mM, valerate 10 mM).

As for `CC[C@H]1[C@@H](O)[C@@H]2[C@H](CC[C@]3(C)[C@@H]([C@H](C)CCC(=O)O)CC[C@@H]23)[C@@]2(C)CC[C@@H](O)C[C@@H]12` [OCA, obeticholic acid], in data set [1], the CCNA2 expression entry was “reduced CCNA2” and the “FXR target FGF19 expression” value is “induced FXR target FGF19”. Further, the miR-22 level result in data set [2] (6 h) is “induced miR-22”. Further, in data set [2] (6 hours), the “AMPK and ERK1/2 activation” value was “activated AMPK and ERK1/2”; the βKlotho protein level entry is “modestly increased”; the “mRNA and protein levels of FGF21, FGFR1 and PGC1α” value is “induced FGF21 signaling by increasing the expression of FGF21, FGF21 receptor (FGFR1), and PGC1α; also recorded: increased mRNA and protein levels of FGF21 and FGFR1 as well as PGC1α”. The “mRNA and protein levels of FGF21, FGFR1 and PGC1α” value in data set [2] (6 hours, listed as INT-747) was “markedly increased the mRNA and protein level of FGF21 and FGFR1”. Further, the “FGF21, FGFR1, P-AMPK, and P-ERK1/2 protein levels” value in data set [3] is “same effects in increasing FGF21, FGFR1, P-AMPK, and P-ERK1/2”. For the same compound, in data set [4] (WD-fed 7-month-old mice, 3 weeks, OCA 10 mg/g body weight daily oral gavage, miR-22 inhibitors 1×10^9 PFU once a week), the “hepatic fat accumulation (steatosis score)” value was “reduced hepatic fat accumulation”. For the same compound, in data set [4] (WD-fed mice, 3 weeks treatment), the hepatic cholesterol level entry is “reduced hepatic cholesterol level”, the hepatic triglyceride levels entry is on record as “did not significantly reduce hepatic triglyceride levels”, the “release of GLP-1 (serum)” value is listed as “stimulated the release of GLP-1” and the “serum FGF21 level” value is listed as “reduced”. Moreover, in data set [4] (diet-induced obese mice), the “hepatic FASN and CD36” value was “reduced FASN and CD36”; the “hepatic FGF21 and FGFR1” value was “induced hepatic FGF21 and FGFR1”. Moreover, in data set [4] (reduced by WD intake), the “expression of hepatic Pepck, G6pase, and Fbp1” value was “reversed those reductions”. Also, the miR-22 level result in data set [5] (24 hours, CDCA 50, 100, 150 μM, OCA 25 and 50 μM) was “induced miR-22”. The “patients with fibrosis having ≥1 stage of fibrosis improvement” value in data set [6] (clinical trials, 19% in the placebo group, p<0.05) was 41%. The “patients reaching the primary endpoint of a ≥2-point improvement in NAFLD activity score without worsening fibrosis” value in data set [6] (clinical trials, 21% in the placebo group, p<0.01) is listed as 57%. In data set [6] (clinical trials), the insulin sensitivity result is “improves insulin sensitivity”; the “markers of liver inflammation and fibrosis” value was “reduced markers of liver inflammation and fibrosis”. Further, the “deaths and liver injury” value in data set [6] (overdose) is “caused deaths and liver injury”. Besides, the “hepatic inflammation and fibrosis” value in data set [7] was “reduces hepatic inflammation and fibrosis”.

Turning to `O=C(CCCCCCC(=O)Nc1ccccc1)NO` [SAHA, suberanilohydroxamic acid], the miR-22 level entry in data set [5] (setting [8]) is on record as “induced miR-22”.

As for `CC(=O)O` [acetate], in data set [5] (setting [8]), the miR-22 level result is “not able to induce miR-22”.

As for `O=CO` [formate], the miR-22 level result in data set [5] (setting [8]) is on record as “not able to induce miR-22”.

With `CCC(=O)O` [propionate], in data set [5] (setting [8]), the miR-22 level entry is “induced miR-22”.

`CCCCC(=O)O` [valerate]: in data set [5] (setting [8]), the miR-22 level entry is given as “induced miR-22”.
